Here are results for five compounds from patent US4921504A, “4-(N-ethyl-N-2-hydroxyethyl)-amino-1-(2 hydroxyethyl)-amino-2-nitrobenzene and compositions for dyeing hair containing the same” (Wella Aktiengesellschaft, priority 1984, dated 1990).

Molecules are shown by their SMILES. Converted amounts (≈) assume the structure as drawn. Read-outs that look alike come from different tables or passages of the source.

In general, solubility refers to the concentration that dissolves in the medium under given conditions. Low values mean little dissolved substance, high ones much dissolved substance. The term LD50 denotes the dose expected to kill half of the subjects tested.

For data set [1] the following is noted: prior-art compound, cited from earlier work.
For data set [2] the following is noted: prior-art compound; doubts recently raised regarding safe use; cited from earlier work.
The conditions of data set [3]: prior-art compound; cited from earlier work.
Data set [4] in a line: storage stability of dyes. Particulars: in dye compositions. Type of data set: physicochemical.
The subject of another data set is yeast cell. Kind of data set: yeast cell-mutagenity test. Type of data set: cell-based. An excerpt:
2. yeast cell-mutagenity test

Data set [5] is described as follows: general toxicological safety. Particulars: compared with compounds II through VI.
Another data set is described as follows: solubility in water. The format is physicochemical. An excerpt:
In view of the foregoing, it was most surprising to find the blue nitro dye (compound I), being an isomer of compound III and a homologue of compound VI, has sufficiently different characteristics which cannot be derived from known compounds III, IV, V or VI. The dye (I) in accordance with the present invention has a solubility of about 1.0% in water which facilitates the acquisition of dark shades considerably, particularly, in comparison with compound III. […] Rather, an oil is formed from which the dye can later be supplied during the dyeing process. The alternative of redissolving formed crystals would take too much time and, as a result, such crystals would not, again, be available during the dyeing process.

A short description of a further data set: light genuiness. Type of data set: physicochemical. Particulars: nitro dyes containing compound I.
The next data set is described as follows: Ames test. The format is cell-based. Background: In the Ames test, an excess of revertant colonies over the control signals mutagenicity.
The subject of a further data set is human-lymphocyte. In words: human-lymphocyte-test. Type of data set: cell-based.
The next data set can be described thus: LD50 (toxicity). Particulars: in vivo.
The next data set deals with mouse-lymphoma. Kind of data set: mouse-lymphoma-assay. Type of data set: cell-based.
The mark [6] stands for this setting: in water without also having to dissolve intermediaries (III).

Turning to `O=[N+]([O-])c1cc(N(CCO)CCO)ccc1NCCO` [IV], the “solubility in water” value in data set [1] was “high solubility”.
With `CNc1ccc(N(CCO)CCO)cc1[N+](=O)[O-]` [V], in data set [2], the level of toxicity entry is “possibly unacceptable”. Also, the solubility in water entry in data set [1] (setting [6]) is given as “about 0.5%”.
`CCNc1ccc(N(CCO)CCO)cc1[N+](=O)[O-]` [III]: the solubility in water entry in data set [1] (setting [6]) was “below 0.15%”.
As for `CN(CCO)c1ccc(NCCO)c([N+](=O)[O-])c1` [VI], the “mutagenic effect in Ames test” value in data set [3] is listed as “mutagenic effect”.
`CCN(CCO)c1ccc(NCCO)c([N+](=O)[O-])c1` [Compound I, 4-(N-ethyl-N-2'-hydroxyethyl)-amino-1-(2"-hydroxyethyl)-amino-2-nitrobenzene]: the storage stability entry in [4] is on record as “extraordinary”. In addition, the “mutagenicity in yeast cell-mutagenity test” value in the data set with yeast cell was “not mutagenic”. The toxicological safety result in data set [5] is reported as “safe”. Besides, in the data set “skin compatibility”, the skin compatibility entry is on record as “good skin compatibility”. The “behaviour when exceeding solubility” value in the data set “solubility in water” (exceeding solubility, an oil is formed) was “does not crystallize”. The solubility in the data set “solubility in water” (in water) is ~10000 µg/mL (≈ 37.1 mM). Further, the light genuiness result in the data set “light genuiness” is listed as “very good”. The “mutagenicity in Ames test” value in the data set “Ames test” is on record as “not mutagenic”. Besides, in the data set with human-lymphocyte, the mutagenicity in human-lymphocyte-test entry is “not mutagenic”. Also, the LD50 in “LD50 (toxicity)” was ~2000 mg/kg. For the same compound, the mutagenicity in mouse-lymphoma-assay result in the data set with mouse-lymphoma is reported as “not mutagenic”.
